Literature values in patent US20220313671A1 (Chiesi Farmaceutici S.p.A., priority 2011, published 2022).

## CCCC(=O)OCOC(=O)C1=C(C)NC(C)=C(C(=O)OC)C1c1cccc(Cl)c1Cl (stereo not drawn) [clevidipine]
Rapid offset of activity
  full offset of activity: 5 to 15 min
Rapid onset of activity
  onset of activity: 2 to 4 min
Time after discontinuation of clevidipine
  return of blood pressure to pre-treatment levels: 5 to 15 min
